Like-named read-outs stand apart in the source and are kept apart here.
Legend:
[1] = test system: 187 kinases; conditions: cited from earlier work
[2] = in vivo; cited from earlier work
[3] = test system: LRRK2 Ser910 and Ser935 phosphorylation; conditions: in vitro; cited from earlier work
[4] = test system: LRRK2 Ser910 and Ser935 phosphorylation; conditions: in peripheral tissues in vivo; cited from earlier work
[5] = test system: panel of 460 other kinases; conditions: cited from earlier work
[6] = molecular target: LRRK2 kinase (Homo sapiens, UniProt Q5S007); conditions: previously reported; cited from earlier work
[7] = test system: LRRK2 phosphorylation; conditions: mice, 30 mg/kg to 50 mg/kg i.p., in vivo; cited from earlier work
[8] = test system: panel of 136 other kinases; conditions: cited from earlier work
[9] = cited from earlier work
[10] = test system: DSS-colitis; test: DSS (dextran-sulfate)-colitis in mice; type: in vivo
Source text: In initial studies to evaluate global LRRK2 function in bowel inflammation, LRRK2-Tg mice (as well as LRRK2 KO mice) were subjected to DSS (dextran-sulfate)-colitis. […] In contrast, DSS-colitis in LRRK2 KO mice was slightly less severe than in control mice (FIG. 2a and FIG. 2b). This latter result differs from that reported by Liu et al. who found increased severity of DSS colitis in LRRK2 KO mice. This discrepancy is likely due to differences in the control mice used in the two studies: the experiments described herein used control mice that had been back-crossed for 9 generations, were housed in the same facility and exposed to the same microbiota. These studies of DSS-colitis thus indicate that increased expression of LRRK2 leads to an increased inflammatory response in experimental colitis.

[11] = test system: BMDC from LRRK2 Tg mice; test: autophagy (Western blotting, LC3 puncta) in M. leprae- and ZymD-stimulated BMDC from LRRK2 Tg mice; type: cell-based
[12] = test system: human BMDC derived from Crohn's disease peripheral blood; test: ZymD-induced TNF-alpha production in human BMDC derived from Crohn's disease peripheral blood; type: cell-based; conditions: human cells
[13] = test system: BMDC from LRRK2 Tg mice; test: ZymD-induced cytokine production in BMDC from LRRK2 Tg mice; type: cell-based; conditions: for ZymD-induced cytokine production: FIG. 5a and 5b
Source text: Since several of the candidate susceptibility genes in IBD (e.g., NOD2 and […]) are likely to be causing disease via an abnormal innate immune response, it was reasoned that increased LRRK2 expression was leading to an enhanced inflammatory response initiated by a Pathogen Associated Molecular Patterns (PAMPs) in the gastrointestinal environment.
Furthermore, in rat microglia, LRRK2 inhibitors block TLR4-induced TNF-a and iNOS production. Based on these findings, whether LRRK2 inhibition can serve as a therapeutic target in IBD was investigated. First, ZymD-induced cytokine production in BMDC from LRRK2 Tg mice in the presence or absence of two LRRK2 inhibitors, LRRK2-IN-1 and CZC54252.

[14] = ZymD-induced, BMDC from LRRK2 Tg mice

LRRK2 kinase, sequence (Q5S007 whole entry, species assumed): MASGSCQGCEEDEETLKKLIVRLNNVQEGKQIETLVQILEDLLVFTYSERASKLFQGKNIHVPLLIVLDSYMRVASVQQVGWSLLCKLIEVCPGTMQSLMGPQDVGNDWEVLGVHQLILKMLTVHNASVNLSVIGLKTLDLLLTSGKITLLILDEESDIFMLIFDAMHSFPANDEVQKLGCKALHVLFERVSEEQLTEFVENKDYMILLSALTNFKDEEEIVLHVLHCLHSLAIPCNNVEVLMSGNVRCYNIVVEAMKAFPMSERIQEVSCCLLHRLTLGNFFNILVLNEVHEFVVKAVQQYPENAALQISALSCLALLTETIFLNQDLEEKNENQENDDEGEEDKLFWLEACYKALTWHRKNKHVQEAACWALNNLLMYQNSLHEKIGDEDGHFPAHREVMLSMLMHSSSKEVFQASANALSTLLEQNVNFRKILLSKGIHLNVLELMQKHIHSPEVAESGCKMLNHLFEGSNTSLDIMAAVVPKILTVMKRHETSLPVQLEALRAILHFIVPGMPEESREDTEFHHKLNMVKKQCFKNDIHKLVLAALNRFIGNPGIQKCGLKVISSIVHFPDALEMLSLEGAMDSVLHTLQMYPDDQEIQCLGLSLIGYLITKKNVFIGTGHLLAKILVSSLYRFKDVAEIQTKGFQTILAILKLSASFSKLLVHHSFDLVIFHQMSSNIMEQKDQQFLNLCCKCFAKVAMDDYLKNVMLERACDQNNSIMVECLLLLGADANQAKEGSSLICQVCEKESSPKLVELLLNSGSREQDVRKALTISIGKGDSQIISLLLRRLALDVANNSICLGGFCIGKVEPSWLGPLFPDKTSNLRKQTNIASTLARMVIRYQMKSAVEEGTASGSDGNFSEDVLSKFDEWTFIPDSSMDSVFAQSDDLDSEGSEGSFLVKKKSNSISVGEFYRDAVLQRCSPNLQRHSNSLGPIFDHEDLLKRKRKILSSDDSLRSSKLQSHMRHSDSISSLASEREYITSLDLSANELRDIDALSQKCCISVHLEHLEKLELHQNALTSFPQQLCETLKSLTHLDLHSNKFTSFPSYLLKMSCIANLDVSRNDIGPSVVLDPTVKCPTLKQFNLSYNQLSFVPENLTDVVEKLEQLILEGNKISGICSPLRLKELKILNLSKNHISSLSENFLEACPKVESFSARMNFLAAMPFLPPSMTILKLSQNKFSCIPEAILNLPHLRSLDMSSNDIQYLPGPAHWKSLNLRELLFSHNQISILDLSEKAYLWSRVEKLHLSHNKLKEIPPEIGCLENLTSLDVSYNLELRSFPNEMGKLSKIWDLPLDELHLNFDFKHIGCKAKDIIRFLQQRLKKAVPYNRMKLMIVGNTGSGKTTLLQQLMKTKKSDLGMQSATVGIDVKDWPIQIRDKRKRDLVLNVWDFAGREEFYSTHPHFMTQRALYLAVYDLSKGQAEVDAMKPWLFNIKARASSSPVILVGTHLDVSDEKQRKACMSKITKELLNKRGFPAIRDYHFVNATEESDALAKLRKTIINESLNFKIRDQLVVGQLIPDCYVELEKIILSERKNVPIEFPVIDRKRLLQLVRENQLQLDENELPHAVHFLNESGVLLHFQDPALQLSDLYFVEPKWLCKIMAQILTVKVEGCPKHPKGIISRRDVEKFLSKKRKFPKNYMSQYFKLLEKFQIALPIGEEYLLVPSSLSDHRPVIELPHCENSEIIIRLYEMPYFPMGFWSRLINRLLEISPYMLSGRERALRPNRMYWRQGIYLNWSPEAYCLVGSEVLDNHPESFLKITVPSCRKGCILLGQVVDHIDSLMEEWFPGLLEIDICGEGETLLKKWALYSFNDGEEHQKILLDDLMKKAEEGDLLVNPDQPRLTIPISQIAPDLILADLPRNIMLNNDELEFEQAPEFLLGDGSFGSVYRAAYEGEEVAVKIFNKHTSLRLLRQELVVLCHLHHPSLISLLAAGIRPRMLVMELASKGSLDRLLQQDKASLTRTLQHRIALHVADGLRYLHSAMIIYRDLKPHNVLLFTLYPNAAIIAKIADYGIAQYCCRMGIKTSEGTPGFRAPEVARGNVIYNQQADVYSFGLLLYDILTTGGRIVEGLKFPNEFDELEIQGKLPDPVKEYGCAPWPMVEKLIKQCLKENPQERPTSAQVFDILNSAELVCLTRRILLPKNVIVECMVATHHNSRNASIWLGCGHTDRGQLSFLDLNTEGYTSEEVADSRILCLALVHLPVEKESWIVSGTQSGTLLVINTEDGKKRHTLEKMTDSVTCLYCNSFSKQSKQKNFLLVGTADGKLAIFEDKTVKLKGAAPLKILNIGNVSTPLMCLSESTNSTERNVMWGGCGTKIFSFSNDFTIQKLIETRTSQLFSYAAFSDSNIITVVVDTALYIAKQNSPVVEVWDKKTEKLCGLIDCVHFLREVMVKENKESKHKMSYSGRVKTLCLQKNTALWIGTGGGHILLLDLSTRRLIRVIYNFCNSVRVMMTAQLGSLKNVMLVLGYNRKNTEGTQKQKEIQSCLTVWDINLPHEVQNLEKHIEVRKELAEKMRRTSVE

In the case of `CCNc1nc(Nc2cc(F)c(C(=O)N3CCOCC3)cc2OC)ncc1C(F)(F)F` [GNE-7915, (4-((4-(ethylamino)-5-(trifluoromethyl)pyrimidin-2-yl)amino)-2-fluoro-5-methoxyphenyl)(morpholino)methanone], the “selectivity (kinases)” value [1] is listed as 1/187 and the brain penetration [2] is listed as “brain-penetrant”.

For `O=C(Nc1cccnc1)c1cc(-c2ccnc(F)c2)ccc1OCc1ccccc1` [GSK2578215A, 5-(2-Fluoro-4-pyridinyl)-2-(phenylmethoxy)-N-3-pyridinylbenzamide], the “Ser910 and Ser935 phosphorylation” value [3] is given as “blocks”, the “Ser910 and Ser935 phosphorylation” value [4] is given as “blocks” and the “selectivity for LRRK2 against a panel of 460 other kinases” value [5] is given as “displays selectivity for LRRK2”. The brain penetration [2] was “brain penetrant”.

For `O=C1Nc2ccc(I)cc2/C1=C/c1cc(Br)c(O)c(Br)c1` [GW5074], the “inhibitory activities of LRRK2 kinase” value [6] is listed as “inhibitory activities”.

In the case of `O=S(=O)(NCCNC/C=C/c1ccc(Br)cc1)c1cccc2cnccc12` [H-89], the “inhibitory activities of LRRK2 kinase” value [6] is given as “inhibitory activities”.

In the case of `CNc1nc(Nc2ccc(C(=O)N3CCOCC3)cc2OC)ncc1Cl` [HG-10-102-01, (4-(5-Chloro-4-(methylamino)pyrimidin-2-ylamino)-3-methoxyphenyl)(morpholino)methanone], the “blood-brain-barrier crossing for LRRK2 phosphorylation inhibition” value [7] is given as “can cross the blood-brain-barrier”, the “activity toward a panel of 136 other kinases” value [8] is given as “little activity” and the cell permeability [9] is given as “cell-permeable”.

In the case of `O=C1Nc2ccccc2/C1=C1/Nc2ccccc2/C1=N\O` [Indirubin-3-monoxime], the “inhibitory activities of LRRK2 kinase” value [6] is listed as “inhibitory activities”.

With `COc1cc(C(=O)N2CCC(N3CCN(C)CC3)CC2)ccc1Nc1ncc2c(n1)N(C)c1ccccc1C(=O)N2C` [LRRK2-IN-1, 5,11-Dihydro-2-[[2-methoxy-4-[[4-(4-methyl-1-piperazinyl)-1-piperidinyl]carbonyl]phenyl]amino]-5,11-dimethyl-6H-pyrimido[4,5-b][1,4]benzodiazepin-6-one] the DSS-colitis severity ([10]; LRRK2-Tg mice) was “amelioration”, the DSS-colitis severity ([10]; wild-type mice (so in the source)) was “ameliorate” and the “autophagy (Western blotting and quantitation of LC3 puncta)” value [11] was “reversed inhibition of autophagy”. For the same compound, the “concentration required to suppress cytokine production” value [12] was 5 µM, the ZymD-induced cytokine production ([13]; BMDC from LRRK2 Tg mice) was “greatly reduced” and the “inhibition of TNF-alpha, dose dependence” value [13, 14] was “dose dependent”. The “production of pro-inflammatory cytokine mRNAs (TNF-alpha, TL1A, IL-23p19, IL-6 and IL-1beta mRNAs)” value [13, 14] was “suppressed”.

For `COc1cc(N2CCC(N3CCN(C)CC3)CC2)ccc1Nc1ncc(Cl)c(Nc2ccccc2S(=O)(=O)C(C)C)n1` [TAE684], the “inhibitory activities of LRRK2 kinase” value [6] is listed as “inhibitory activities”.

For “N-[-[[5-Chloro-2-[[2-methoxy-4-(4-morpholinyl)phenyl]amino]-4-pyrimidinyl]amino]phenyl]methanesulfonamide hydrochloride [CZC54252]”, the “inhibition of TNF-alpha, dose dependence” value [13] was “dose dependent”, the ZymD-induced cytokine production ([13]; BMDC from LRRK2 Tg mice) was “greatly reduced” and the “production of pro-inflammatory cytokine mRNAs (TNF-alpha, TL1A, IL-23p19, IL-6 and IL-1beta mRNAs)” value [13, 14] was “suppressed”.
